{"source": "patent US12139472B2", "about": "“Inhibitors of advanced glycation end products” (priority 2019, dated 2024)", "system": "CYP3A", "format": "in vitro ADME, human", "conditions": "HLM", "excerpt": "Compound 5 (PTG-630 free base) and 7 additional compounds for CYP3A P450 inhibition.\nImidazole (and benzimidazole) containing drugs are ubiquitous in pharmacological practice; however, drug-drug interactions (DDI) have been observed with some imidazole-containing classes, such as the antifungal azoles typified by ketoconazole. It is believed that the imidazole moiety accounts for their ability to inhibit CYP3A, the major DDI enzyme that metabolizes up to 50% of common drugs. The compounds of the disclosure incorporate an imidazole moiety attached to a pyridine ring via the imidazole C-2. They all share an imidazo-hydroxypyridine theme that can bind redox metal ions, while differing in the nature of the X side-chain. The potential of the compounds of the disclosure for DDI was evaluated by screening their inhibition of CYP3A.\nTwo studies were conducted in human liver microsomes (HLM). Lead candidate PTG-630 was tested using the Eurofins G232 panel (Drug Metab Dispos. 2001 January; 29(1):23-9), where inhibition was measured against seven CYP enzymes; CYP3A4 was tested using two different substrates, midazolam and testosterone. In a second study, inhibition of CYP3A4 (midazolam substrate only) was compared for 8 compounds of interest. The test protocol involved one-point measurements in duplicate, where inhibition was measured at a fixed 10 μM concentration of candidate inhibitors. In all cases, the substrate for each CYP enzyme was at a concentration equal to its specific Km value that was independently obtained from an 8-point dose-response study. Based on the observed value for percent inhibition for each test compound, we calculated of an IC50 assuming a competitive mode of inhibition. If percent inhibition for an inhibitor at a concentration of [I] is denoted by P, then: IC50=[I]*(100−P)/P In the single-point assay, [I] is 10 μM. If measured inhibition is 10%, then IC50=10*(100-10)/10=90 μM. […] As discussed in Lin et al. (J Pharm Sci. 2007 September; 96(9):2485-93; doi: 10.1002/jps.20884), CYP inhibition is broadly interpreted as being “potent” if IC50<1 μM, “moderate” if 1 μM<IC50<10 μM, and “weak” if IC50>10 μM."}
{"smiles": "Cc1ncc(CN2CCCCCC2)c(-c2ncc[nH]2)c1O", "note": "[PTG-670]", "values": [{"measurement": "Estimated IC50", "setting": "midazolam, from one-point % inhibition at 10 μM, IC50=[I]*(100−P)/P", "value": "— None"}, {"measurement": "P % inhib", "setting": "substrate midazolam at Km, Inhib Conc. 1.0E−05 M", "value": "−1.1", "unit": "%"}]}
